Test results from ChEMBL document CHEMBL5104091, “Pyridazine as a privileged structure: An updated review on anticancer activity of pyridazine containing bioactive molecules” (Eur J Med Chem, 2021).
pIC50: −log10 of the molar value. Values after ≈ are worked out from the molar mass of the structure shown.

Experiments:
HCT-116 = assay: Cytotoxicity against human HCT-116 cells assessed as cell growth inhibition measured after 48 hrs by SRB assay; assay type: functional, cell-based; details: HCT-116, 48 h
[1] = molecular target: Vascular endothelial growth factor receptor 3 (Homo sapiens) (UniProt P35916); assay: Inhibition of VEGFR3 (unknown origin) at 10 uM by ELISA relative to control
Vascular endothelial growth factor receptor 3 (Homo sapiens), sequence (P35916 whole entry): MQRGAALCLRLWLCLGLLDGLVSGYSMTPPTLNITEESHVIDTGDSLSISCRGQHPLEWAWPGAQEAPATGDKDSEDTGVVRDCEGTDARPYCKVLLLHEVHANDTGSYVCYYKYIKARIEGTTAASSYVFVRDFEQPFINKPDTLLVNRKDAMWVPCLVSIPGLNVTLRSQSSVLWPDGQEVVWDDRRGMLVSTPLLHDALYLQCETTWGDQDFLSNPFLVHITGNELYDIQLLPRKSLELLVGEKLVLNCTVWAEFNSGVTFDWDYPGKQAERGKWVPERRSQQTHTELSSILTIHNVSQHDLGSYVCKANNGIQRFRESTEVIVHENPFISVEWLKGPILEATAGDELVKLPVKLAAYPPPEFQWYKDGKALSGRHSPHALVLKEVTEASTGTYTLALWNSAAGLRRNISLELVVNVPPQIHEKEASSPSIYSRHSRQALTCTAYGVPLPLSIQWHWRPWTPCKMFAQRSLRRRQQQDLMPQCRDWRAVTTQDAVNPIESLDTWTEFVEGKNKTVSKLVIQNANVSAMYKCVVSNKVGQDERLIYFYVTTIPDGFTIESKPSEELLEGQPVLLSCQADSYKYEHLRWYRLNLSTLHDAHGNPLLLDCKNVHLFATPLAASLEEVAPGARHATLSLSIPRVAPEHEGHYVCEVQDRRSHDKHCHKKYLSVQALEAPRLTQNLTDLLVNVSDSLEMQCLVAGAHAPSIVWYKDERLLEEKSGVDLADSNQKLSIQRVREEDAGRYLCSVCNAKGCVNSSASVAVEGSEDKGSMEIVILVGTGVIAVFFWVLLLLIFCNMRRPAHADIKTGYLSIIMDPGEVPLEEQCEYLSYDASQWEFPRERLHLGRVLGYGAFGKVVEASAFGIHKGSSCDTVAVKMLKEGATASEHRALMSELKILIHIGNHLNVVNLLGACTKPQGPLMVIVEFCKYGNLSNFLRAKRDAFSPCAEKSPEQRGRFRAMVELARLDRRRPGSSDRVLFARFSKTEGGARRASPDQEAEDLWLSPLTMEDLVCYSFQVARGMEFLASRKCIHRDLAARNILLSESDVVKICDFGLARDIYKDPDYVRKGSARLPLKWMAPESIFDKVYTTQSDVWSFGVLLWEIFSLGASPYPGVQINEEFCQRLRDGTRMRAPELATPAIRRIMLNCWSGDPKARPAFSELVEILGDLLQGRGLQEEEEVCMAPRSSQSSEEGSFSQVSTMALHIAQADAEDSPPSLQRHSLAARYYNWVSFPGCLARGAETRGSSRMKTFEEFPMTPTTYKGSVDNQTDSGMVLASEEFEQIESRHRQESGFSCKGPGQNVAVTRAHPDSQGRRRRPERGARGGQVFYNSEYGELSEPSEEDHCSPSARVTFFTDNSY

[2] = In vivo inhibition of VEGFR2 in Swiss albino mouse implanted with mouse Ehrlich cells incubated for 24 hrs by immunohistochemical staining based analysis relative to control; assay type: functional
[3] = molecular target: T1, Poly [ADP-ribose] polymerase 1 (Homo sapiens, UniProt P09874); assay: Displacement of [125I]KX1 from PARP1 in human OVCAR-8 cells incubated for 1 hr by wizard gamma counter analysis; assay type: cell-based
T1 sequence (P09874 whole entry): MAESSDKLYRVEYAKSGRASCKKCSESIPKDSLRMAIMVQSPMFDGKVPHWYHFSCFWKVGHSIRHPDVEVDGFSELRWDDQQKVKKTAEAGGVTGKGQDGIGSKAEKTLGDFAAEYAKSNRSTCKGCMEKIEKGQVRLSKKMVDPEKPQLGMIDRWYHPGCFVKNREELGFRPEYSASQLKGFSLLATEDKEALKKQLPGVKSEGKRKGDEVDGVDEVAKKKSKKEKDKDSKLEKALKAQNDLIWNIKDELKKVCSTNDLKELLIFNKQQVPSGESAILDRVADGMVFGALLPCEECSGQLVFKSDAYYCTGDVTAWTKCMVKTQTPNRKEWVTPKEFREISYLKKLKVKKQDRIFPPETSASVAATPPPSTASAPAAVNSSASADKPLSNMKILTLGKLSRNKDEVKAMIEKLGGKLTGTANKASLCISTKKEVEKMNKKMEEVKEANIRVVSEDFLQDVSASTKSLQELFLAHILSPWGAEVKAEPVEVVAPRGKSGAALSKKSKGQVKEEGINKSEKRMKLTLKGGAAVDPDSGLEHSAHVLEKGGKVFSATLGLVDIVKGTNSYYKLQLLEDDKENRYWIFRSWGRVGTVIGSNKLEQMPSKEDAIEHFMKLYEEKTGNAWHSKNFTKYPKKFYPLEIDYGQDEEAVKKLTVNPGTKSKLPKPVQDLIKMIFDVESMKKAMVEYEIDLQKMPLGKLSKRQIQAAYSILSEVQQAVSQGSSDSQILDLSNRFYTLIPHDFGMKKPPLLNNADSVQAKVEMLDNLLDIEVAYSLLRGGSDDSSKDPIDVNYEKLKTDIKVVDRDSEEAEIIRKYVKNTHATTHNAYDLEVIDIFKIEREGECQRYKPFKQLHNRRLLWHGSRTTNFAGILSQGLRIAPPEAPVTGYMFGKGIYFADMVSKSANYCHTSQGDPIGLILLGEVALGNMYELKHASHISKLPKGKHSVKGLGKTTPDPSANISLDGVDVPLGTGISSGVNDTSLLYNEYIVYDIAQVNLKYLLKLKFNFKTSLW

HepG2 [4] = assay: Cytotoxicity against human HepG2 cells assessed as cell growth inhibition by colorimetric method; assay type: functional, cell-based
[5] = molecular target: Hepatocyte growth factor receptor (Homo sapiens, UniProt P08581); assay: Inhibition of human recombinant c-MET in presence of ATP by HTRF assay
Hepatocyte growth factor receptor, sequence (P08581 whole entry): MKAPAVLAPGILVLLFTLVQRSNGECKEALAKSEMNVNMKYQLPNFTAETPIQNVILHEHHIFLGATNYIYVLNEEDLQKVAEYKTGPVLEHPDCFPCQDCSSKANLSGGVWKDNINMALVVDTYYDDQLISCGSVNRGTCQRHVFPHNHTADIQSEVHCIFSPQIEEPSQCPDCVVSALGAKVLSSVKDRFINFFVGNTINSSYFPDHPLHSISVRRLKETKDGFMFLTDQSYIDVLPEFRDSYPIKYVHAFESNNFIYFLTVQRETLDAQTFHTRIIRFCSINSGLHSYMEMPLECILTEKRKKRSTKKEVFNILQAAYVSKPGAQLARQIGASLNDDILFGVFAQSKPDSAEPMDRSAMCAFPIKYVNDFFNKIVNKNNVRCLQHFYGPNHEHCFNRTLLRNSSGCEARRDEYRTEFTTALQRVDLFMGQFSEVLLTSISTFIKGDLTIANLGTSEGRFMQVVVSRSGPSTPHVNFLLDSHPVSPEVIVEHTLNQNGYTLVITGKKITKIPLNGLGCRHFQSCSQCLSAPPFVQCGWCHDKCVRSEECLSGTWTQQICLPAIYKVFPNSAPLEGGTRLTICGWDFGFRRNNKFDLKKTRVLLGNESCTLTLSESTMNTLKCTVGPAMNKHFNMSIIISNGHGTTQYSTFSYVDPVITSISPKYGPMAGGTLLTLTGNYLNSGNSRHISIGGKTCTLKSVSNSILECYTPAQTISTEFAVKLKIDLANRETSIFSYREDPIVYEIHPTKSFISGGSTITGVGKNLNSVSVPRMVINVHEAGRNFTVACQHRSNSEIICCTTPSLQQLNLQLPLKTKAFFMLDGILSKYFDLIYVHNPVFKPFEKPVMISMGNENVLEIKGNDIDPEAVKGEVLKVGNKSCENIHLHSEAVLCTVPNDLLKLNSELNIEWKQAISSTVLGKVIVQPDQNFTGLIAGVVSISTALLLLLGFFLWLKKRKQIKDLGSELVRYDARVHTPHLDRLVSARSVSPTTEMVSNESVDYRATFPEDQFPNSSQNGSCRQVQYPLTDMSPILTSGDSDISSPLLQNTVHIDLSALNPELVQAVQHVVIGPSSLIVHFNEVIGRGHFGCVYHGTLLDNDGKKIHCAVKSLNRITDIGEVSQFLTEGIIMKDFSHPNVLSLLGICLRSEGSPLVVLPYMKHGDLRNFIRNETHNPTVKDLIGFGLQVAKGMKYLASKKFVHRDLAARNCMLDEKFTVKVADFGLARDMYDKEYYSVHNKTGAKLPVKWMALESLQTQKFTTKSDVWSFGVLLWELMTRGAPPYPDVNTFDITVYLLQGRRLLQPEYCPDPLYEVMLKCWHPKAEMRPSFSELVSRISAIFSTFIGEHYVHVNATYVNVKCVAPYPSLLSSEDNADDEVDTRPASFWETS

MDA-MB-231 = assay: Antiproliferative activity against human MDA-MB-231 cells assessed as cell growth inhibition measured after 48 hrs by WST-1 assay; assay type: functional, cell-based; details: MDA-MB-231, 48 h
[6] = molecular target: Vascular endothelial growth factor receptor 2 (Homo sapiens, UniProt P35968); assay: Binding affinity to VEGFR2 (unknown origin) at 10 uM using ULight-4E-BP1 peptide as substrate incubated for 1 hr in presence of ATP by fluorescence based analysis relative to control
Vascular endothelial growth factor receptor 2, sequence (P35968 whole entry): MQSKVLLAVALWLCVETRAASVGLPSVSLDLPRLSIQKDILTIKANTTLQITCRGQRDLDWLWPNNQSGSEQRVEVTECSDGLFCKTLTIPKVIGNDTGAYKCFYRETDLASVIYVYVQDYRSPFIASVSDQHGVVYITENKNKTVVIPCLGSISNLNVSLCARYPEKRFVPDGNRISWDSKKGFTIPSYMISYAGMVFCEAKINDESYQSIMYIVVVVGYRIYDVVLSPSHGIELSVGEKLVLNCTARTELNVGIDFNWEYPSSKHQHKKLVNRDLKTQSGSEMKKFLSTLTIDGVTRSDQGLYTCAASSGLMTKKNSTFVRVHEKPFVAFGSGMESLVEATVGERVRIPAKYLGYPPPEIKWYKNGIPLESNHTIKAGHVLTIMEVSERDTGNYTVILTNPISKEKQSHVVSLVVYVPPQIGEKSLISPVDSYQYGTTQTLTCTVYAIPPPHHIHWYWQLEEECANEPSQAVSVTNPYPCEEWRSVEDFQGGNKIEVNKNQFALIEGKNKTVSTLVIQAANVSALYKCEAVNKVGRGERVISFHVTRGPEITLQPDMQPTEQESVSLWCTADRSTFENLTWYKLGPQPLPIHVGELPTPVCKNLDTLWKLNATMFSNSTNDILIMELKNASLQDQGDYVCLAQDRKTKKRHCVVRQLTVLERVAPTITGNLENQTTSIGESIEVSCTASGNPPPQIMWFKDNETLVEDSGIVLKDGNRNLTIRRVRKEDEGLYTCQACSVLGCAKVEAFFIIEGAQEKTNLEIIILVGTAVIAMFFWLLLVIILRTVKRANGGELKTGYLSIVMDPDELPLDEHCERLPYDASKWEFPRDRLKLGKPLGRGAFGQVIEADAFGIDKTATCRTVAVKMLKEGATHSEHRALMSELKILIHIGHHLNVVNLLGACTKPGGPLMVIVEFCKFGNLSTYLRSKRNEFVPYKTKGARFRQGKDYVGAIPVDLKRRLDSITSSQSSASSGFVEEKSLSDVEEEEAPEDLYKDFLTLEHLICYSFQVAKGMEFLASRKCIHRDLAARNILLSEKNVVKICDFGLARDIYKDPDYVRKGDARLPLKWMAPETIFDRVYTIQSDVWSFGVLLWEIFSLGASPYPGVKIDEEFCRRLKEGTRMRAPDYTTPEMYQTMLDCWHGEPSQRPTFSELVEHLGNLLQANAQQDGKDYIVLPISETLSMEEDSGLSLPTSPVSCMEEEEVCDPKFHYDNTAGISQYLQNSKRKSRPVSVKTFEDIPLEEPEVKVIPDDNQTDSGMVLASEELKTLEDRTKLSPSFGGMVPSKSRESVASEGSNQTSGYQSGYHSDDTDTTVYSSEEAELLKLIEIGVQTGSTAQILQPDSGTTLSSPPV

MDA-MB-468 = assay: Cytotoxicity against human MDA-MB-468 cells assessed as cell growth reduction measured after 48 hrs by MTT assay; assay type: functional, cell-based; details: MDA-MB-468, 48 h
P815 = assay: Cytotoxicity against mouse P815 cells assessed as cell growth inhibition measured after 48 hrs by MTT assay; assay type: functional, cell-based; details: P815, 48 h
MCF7 [7] = assay: Cytotoxicity against human MCF7 cells assessed as cell growth inhibition measured after 48 hrs by MTT assay; assay type: functional, cell-based; details: MCF7, 48 h
[8] = molecular target: T1, Poly [ADP-ribose] polymerase 1; assay: Inhibition of PARP1 (unknown origin) by colorimetric assay
HepG2 [9] = assay: Antiproliferative activity against human HepG2 cells assessed as cell growth inhibition incubated for 48 hrs by MTT assay; assay type: functional, cell-based; details: HepG2, 48 h
MCF7 [10] = assay: Antiproliferative activity against human MCF7 cells assessed as cell growth inhibition incubated for 48 hrs by MTT assay; assay type: functional, cell-based; details: MCF7, 48 h
MCF7 [11] = assay: Antiproliferative activity against human MCF7 assessed as cell growth inhibition measured after 72 hrs by CCK-8 assay; assay type: functional, cell-based; details: MCF7, 72 h
Hep 3B2 [12] = assay: Antiproliferative activity against human Hep3B assessed as cell growth inhibition measured after 72 hrs by CCK-8 assay; assay type: functional, cell-based
Hep 3B2 [13] = assay: Induction of apoptosis in human Hep3B cells assessed as early apoptotic cells incubated for 24 hrs by annexin-V/FITC and propidium iodide staining based flow cytometry analysis; assay type: functional
MCF7 [14] = assay: Induction of apoptosis in human MCF7 cells assessed as early apoptotic cells incubated for 24 hrs by annexin-V/FITC and propidium iodide staining based flow cytometry analysis; assay type: functional
ECa-109 cell line = assay: Antiproliferative activity against human EC109 cells assessed as inhibition of cell growth; assay type: functional, cell-based
A549 [15] = assay: Cytotoxicity against human A549 cells assessed as cell growth inhibition measured after 45 hrs by MTT assay; assay type: functional, cell-based; details: A549, 45 h
HepG2 [16] = assay: Cytotoxicity against human HepG2 cells assessed as cell growth inhibition measured after 45 hrs by MTT assay; assay type: functional, cell-based; details: HepG2, 45 h
A498 = assay: Cytotoxicity against human A498 cells assessed as cell growth inhibition measured after 45 hrs by MTT assay; assay type: functional, cell-based; details: A498, 45 h
Ca-Ski = assay: Cytotoxicity against human Ca-Ski cells assessed as cell growth inhibition measured after 45 hrs by MTT assay; assay type: functional, cell-based
SiHa = assay: Cytotoxicity against human SiHa cells assessed as cell growth inhibition measured after 45 hrs by MTT assay; assay type: functional, cell-based
HT-29 = assay: Antiproliferative activity against human HT-29 cells assessed as cell growth inhibition by propidium iodide staining based fluorescence assay; assay type: functional
MIA PaCa-2 = assay: Antiproliferative activity against human MIA PaCa-2 cells assessed as cell growth inhibition by propidium iodide staining based fluorescence assay; assay type: functional
MCF7 [17] = assay: Antiproliferative activity against human MCF7 cells assessed as cell growth inhibition; assay type: functional, cell-based
[18] = Inhibition of tyrosine kinase (unknown origin); design: species or system Homo sapiens
A549 [19] = assay: Cytotoxicity against human A549 cells assessed as cell growth inhibition measured after 72 hrs by MTT assay; assay type: functional, cell-based; details: A549, 72 h
HepG2 [20] = assay: Cytotoxicity against human HepG2 cells assessed as cell growth inhibition measured after 72 hrs by MTT assay; assay type: functional, cell-based; details: HepG2, 72 h
MCF7 [21] = assay: Cytotoxicity against human MCF7 cells assessed as cell growth inhibition measured after 72 hrs by MTT assay; assay type: functional, cell-based; details: MCF7, 72 h
MCF-12A = assay: Antiproliferative activity against human MCF-12A cells assessed as cell growth inhibition; assay type: functional, cell-based

Question: With `C=CCNC(=S)Nc1cccc(Nc2ccc(Nc3ccc(S(=O)(=O)NC(=N)N)cc3)nn2)c1` as the molecule, how does the pIC50 (HCT-116) read?
Answer: 4.52

Question: What about the inhibition [1] of the same molecule?
Answer: 89.6%

Question: What about the “inhibition (INH)” value [2] of the same molecule?
Answer: 40%

Question: With `COC1CCN(C(=O)c2cc(Cc3n[nH]c(=O)c4ccccc34)ccc2F)CC1` [AZD2461] as the molecule, how does the pIC50 [3] read?
Answer: 8.55

Question: With `CCOC(=O)/C(C#N)=N/Nc1ccc(Nc2nnc(-c3ccc(C)c(C)c3)cc2-c2c(-c3ccccc3)[nH]c3ccccc23)cc1` as the molecule, how does the IC50 (HepG2 [4]) read?
Answer: 3.1 µg/mL (≈ 5.12 µM)

Question: With `Cn1cc(-c2ccc(=O)n(CC3CN(c4ncc(OCC5CCNCC5)cn4)CCO3)n2)cn1` (stereo not given) as the molecule, how does the pIC50 [5] read?
Answer: 7.72

Question: With `O=C1Nc2ccc(Br)cc2/C1=N/Nc1nnc(-c2ccccc2)c2ccccc12` as the molecule, how does the pIC50 (MDA-MB-231) read?
Answer: 4.92

Question: For `O=C(Nc1ccc(Cl)c(Cl)c1)Nc1nnc2ccc(Cl)nn12`, which Activity [6] is on record?
Answer: 3%

Question: With `Cc1n[nH]c(=O)cc1Cc1cc2cc(Cl)ccc2o1` as the molecule, how does the pIC50 (MDA-MB-468) read?
Answer: 5.05

Question: With `CCCOc1ccc2oc(Cc3cc(=O)[nH]nc3C)cc2c1` as the molecule, how does the pIC50 (P815) read?
Answer: 4.46

Question: And the pIC50 (MCF7 [7])?
Answer: 4.84

Question: With `O=C(c1ccc(Cc2n[nH]c(=O)c3cccnc23)cc1)N1CCCC1` as the molecule, how does the pIC50 [8] read?
Answer: 7.43

Question: With `Cc1ccc2oc(Cc3cc(=O)[nH]nc3C)cc2c1` as the molecule, how does the pIC50 (P815) read?
Answer: 4.46

Question: What about the pIC50 (MCF7 [7]) of the same molecule?
Answer: 4.84

Question: With `O=C1Nc2ccc(F)cc2/C1=N/Nc1nnc(-c2ccc(Cl)cc2)c2ccccc12` as the molecule, how does the pIC50 (MDA-MB-231) read?
Answer: 4.92

Question: With `COC1CN(C(=O)c2cc(Cc3n[nH]c(=O)c4ccccc34)ccc2F)C1` as the molecule, how does the pIC50 [3] read?
Answer: 8.09

Question: With `O=C1Nc2ccc(F)cc2/C1=N/Nc1nnc(-c2ccccc2)c2ccccc12` as the molecule, how does the pIC50 (MDA-MB-231) read?
Answer: 4.92

Question: What does the source list for `COc1ccc(-c2cc(Cc3ccc(Cl)cc3)c(=O)[nH]n2)cc1`?
Answer: pIC50 (HepG2 [9]): 4.83; pIC50 (MCF7 [10]): < 4.43

Question: With `Cc1n[nH]c(=O)cc1Cc1cc2ccccc2o1` as the molecule, how does the pIC50 (P815) read?
Answer: 4.46

Question: What about the pIC50 (MCF7 [7]) of the same molecule?
Answer: 4.84

Question: With `C=CC[Se]c1ccc(S(=O)(=O)CCC)nn1` as the molecule, how does the pIC50 (MCF7 [11]) read?
Answer: 4.47

Question: What about the pIC50 (Hep 3B2 [12]) of the same molecule?
Answer: 4.51

Question: What about the Activity (Hep 3B2 [13]) of the same molecule?
Answer: 5.46%

Question: And the Activity (MCF7 [14])?
Answer: 9.28%

Question: For `Cc1ccc(NC(=O)c2ccc(CN3CCN(C)CC3)cc2)cc1Nc1nccc(-c2cccnc2)n1` [IMATINIB], which inhibition [1] is on record?
Answer: 89.6%

Question: What about the “inhibition (INH)” value [2] of the same molecule?
Answer: 30%

Question: With `O=c1[nH]cc(F)c(=O)[nH]1` [FLUOROURACIL] as the molecule, how does the pIC50 (ECa-109 cell line) read?
Answer: 4.84

Question: And the pIC50 (MDA-MB-231)?
Answer: 4.53

Question: With `CC(C)c1ccc(OCC(=O)NNc2ccc(Cl)nn2)c(C(C)C)c1` as the molecule, how does the pIC50 (A549 [15]) read?
Answer: 5.18

Question: What about the pIC50 (HepG2 [16]) of the same molecule?
Answer: 5.16

Question: What about the pIC50 (A498) of the same molecule?
Answer: 5.17

Question: What about the pIC50 (Ca-Ski) of the same molecule?
Answer: 5.12

Question: What about the pIC50 (SiHa) of the same molecule?
Answer: 5.11

Question: With `Cc1n[nH]c(=O)cc1Cc1cc2cc(Cl)cc(Br)c2o1` as the molecule, how does the pIC50 (MDA-MB-468) read?
Answer: 5.51

Question: With `O=C1Nc2ccccc2/C1=N/Nc1nnc(-c2ccc(Cl)cc2)c2ccccc12` as the molecule, how does the pIC50 (MDA-MB-231) read?
Answer: 4.92

Question: With `COc1nc2ccc(C)cc2cc1Cc1cc(-c2ccccc2)n[nH]c1=O` as the molecule, how does the pIC50 (HT-29) read?
Answer: 5.35

Question: And the pIC50 (MIA PaCa-2)?
Answer: 5.66

Question: With `CC1=Nc2c(nnc3ccc(C)cc23)C(=O)NN1` as the molecule, how does the pIC50 (MCF7 [17]) read?
Answer: 7.31

Question: And the pIC50 [18]?
Answer: 6.66

Question: With `COc1cc2c(Oc3ccc(NC(=O)c4nn(-c5ccccc5)ccc4=O)cc3F)ccnc2cc1OCCCN1CCN(C)CC1` as the molecule, how does the pIC50 (A549 [19]) read?
Answer: 8.52

Question: And the pIC50 (HepG2 [20])?
Answer: 6.31

Question: What about the pIC50 (MCF7 [21]) of the same molecule?
Answer: 8.22

Question: With `O=C1Nc2ccc(Cl)cc2/C1=N/Nc1nnc(-c2ccccc2)c2ccccc12` as the molecule, how does the pIC50 (MDA-MB-231) read?
Answer: 4.92

Question: With `Cc1ccc2nnc(C(=O)NNC(N)=S)c(N)c2c1` as the molecule, how does the pIC50 (MCF7 [17]) read?
Answer: 6.96

Question: And the pIC50 [18]?
Answer: 6.47

Question: What about the pIC50 (MCF-12A) of the same molecule?
Answer: 4.19

Question: With `COc1ccc2oc(Cc3cc(=O)[nH]nc3C)cc2c1` as the molecule, how does the pIC50 (P815) read?
Answer: 4.46

Question: And the pIC50 (MCF7 [7])?
Answer: 4.84

Question: With `COC1CCCN(C(=O)c2cc(Cc3n[nH]c(=O)c4ccccc34)ccc2F)CC1` (stereo not given) as the molecule, how does the pIC50 [3] read?
Answer: 8.33
